Data from US20050085441A1, “Use of soluble monovalent oligosaccharides as inhibitors of HIV-1 fusion and replication” (priority 2002, published 2005).

What was measured:
[1] = test system: HIV-1 laboratory strain NL4.3; assay: Syncytia formation in MT-2 cells infected with HIV-1 NL4.3; assay type: cell-based
HIV-2 isolate CBL23 = assay: Replication of HIV-2 clinical isolate CBL23 in MT-2 cells; assay type: cell-based; details: single oligosaccharide
Method: The effect of the oligosaccharides was also tested on the replication of CLB23, a T -tropic clinical isolate of HIV-2.

[2] = test system: HIV-1 laboratory strain NL4.3; assay: Viral p24 antigen release, HIV-1 NL4.3 in MT-2 cells; assay type: cell-based; details: for reduction of production of p24: day 7 post-infection; for effect on release of antigen p24: 0.5-50.0 mM tested, concentration not given
[3] = test system: HIV-1 clinical isolate 1936; assay: Replication of T-tropic clinical isolate 1936 in MT-2 cells (p24 release); assay type: cell-based
[4] = test system: vesicular stomatis virus (VSV) G protein; assay type: cell-based, vesicular stomatitis virus
[5] = test system: HIV-1 M-tropic strain Ba-L; assay: Replication of M-tropic strain Ba-L in human peripheral blood monocytes (p24 release); details: 0.5, 5 and 25 mM, MOI 0.001
[6] = test system: HIV-1 clinical isolate ME46; assay: Replication of T-tropic clinical isolate ME46 in MT-2 cells (p24 release)
Description: MT-2 cells were infected as described above, and the course of infection was followed by the release of p24.

[7] = test system: HIV-1 T-tropic envelope protein of HXB2; assay type: cell-based; details: virions with HIV HXB2 envelope protein, MT-2 cells
HIV-1 (strain NL4.3) = assay: HIV-1 replication in vivo in NOD-SCID huPBL mice (p24, viral load in peritoneal wash)

SMILES	effect on formation of syncytia ([1]; 0.5-50.0 mM tested, concentration not given)	inhibition of replication of HIV-2 isolate CBL23 (HIV-2 isolate CBL23)	reduction of production of p24 ([2]; 5 mM lactose)	effect on release of antigen p24 [2]	effect on replication of isolate 1936 ([3]; 25 mM)	expression of the luciferase reporter [4]	inhibition of replication of strain Ba-L (p24 release) [5]	effect on replication of isolate ME46 ([6]; 15 mM)	inhibition of replication of isolate ME46 ([6]; 25 mM)	expression of the luciferase reporter [7]	formation of syncytia (number and size) ([1]; 25 mM, MT-2 cells, NL4.3)	size of syncytia (number of nuclei) ([1]; concentrations lower than 25 mM)	HIV-1 replication (p24 and viral load) (HIV-1 (strain NL4.3); globotriose 15 mg/mouse i.p. single dose, days 2 and 6 post infection)	HIV-1 replication (p24 and viral load) (HIV-1 (strain NL4.3); repeat experiment, single dose at beginning of infection, day 6)	release of antigen p24 ([2]; 5 mM or lower)	reduction of production of p24 ([2]; 25 mM globotriose)	release of antigen p24 ([2]; 25 mM, effect maximum at days 3 and 7, recovered at day 10 post-infection)	inhibition of replication of isolate 1936 ([3]; 5 mM and above)	inhibition of replication of isolate ME46 ([6]; 5 mM and above)
OC[C@H]1O[C@@H](O[C@H]2[C@H](O)[C@@H](O)[C@H](O)O[C@@H]2CO)[C@H](O)[C@@H](O)[C@H]1O [lactose, o-β-D-galactopyranosyl-(1-4)-β-D-glucopyranose]	weaker than that exhibited by globotriose	basically non-effective	2 fold	less potent than globotriose	practically did not affect	no effect was observed	ineffective	minor effect	ten-fold	inhibited									
CC(=O)N[C@H]1[C@H](O[C@H]2[C@@H](O)[C@@H](CO)O[C@@H](O[C@H]3[C@H](O)[C@@H](O)C(O)O[C@@H]3CO)[C@@H]2O)O[C@H](CO)[C@@H](O)[C@@H]1O[C@@H]1O[C@H](CO)[C@H](O)[C@H](O)[C@H]1O (stereo partly shown) [lacto-N-tetraose, reference compound]				ineffective			ineffective												
OC[C@H]1O[C@H](O[C@@H]2[C@H](O)[C@@H](O)[C@H](O[C@H]3[C@H](O)[C@@H](O)C(O)O[C@@H]3CO)O[C@@H]2CO)[C@H](O)[C@@H](O)[C@H]1O (stereo partly drawn) [globotriose, galactose α1-4galactose β1-4glucose]		much weaker than for the HIV-1 isolates				no effect was observed except for the highest concentration	did not inhibit			inhibited	completely inhibited	decreased	strongly inhibited	diminished replication	not at 5 mM or lower	5 fold	inhibited	more than ten-fold	more than ten-fold
